This note sets out measurements from patent publication US20060079453A1, “Hla binding peptides and their uses” (priority 2002, published 2006).

Some targets named below: HLA-DR DRB1*0401 (DR4) (Homo sapiens, UniProt P01903+P01911, A100K/A169T/F76Y/I96L/K127E/L162R/M171V/N62H/P40V/Q125Y/R42H/S133A/S149N/S66Y/V115G/V209L/W38E); HLA-DR DRB1*0901 (DR9) (Homo sapiens, UniProt P01903+P01911, A100R/A103E/D57H/D86V/F55Y/F60I/F76Y/I96F/K127E/L162R/M171V/P40D/Q125H/Q99R/R33Q/R42F/S133A/S66N/T210M/V115G/W38K/Y107V/Y59G/Y89S); HLA-DR DRB1*0405 (DR4) (Homo sapiens, UniProt P01903+P01911, A100R/A169T/D86S/F76Y/I96L/K127E/L162R/M171V/N62H/P40V/Q125Y/R42H/S133A/S149N/S66Y/V115G/V209L/W38E); HLA-DR DRB1*0101 (DR1) (Homo sapiens, UniProt P01903+P01911, A100R/D57E/F55L/F60I/F76Y/I96L/L162R/M171V/P40L/Q125E/R42F/V115G/Y59C); HLA-DR DRB1*0701 (DR7) (Homo sapiens, UniProt P01903+P01911, A100R/A102G/A103Q/D57E/D86V/E43K/F76Y/K127E/L162R/M171V/P40G/Q125H/Q99D/R33Q/R42Y/R54Q/S133A/S66F/T210M/V115G/Y107V/Y59L/Y89S).

What all share (test): biochemical
Type in all cases: binding

In a further test the target is HLA-DR DRB1*0301 (DR3) (Homo sapiens, UniProt P01903+P01911, A100K/A102G/A103R/A169T/F55Y/I96L/K41T/L162R/M171V/P40S/Q125H/Q178H/Q39Y/R42S/S66N/T106N/T262R/W38E/Y61H). To be noted: read-out: DRB1 *0301.
The next test concerns the target HLA-DR DRB4*0101 (DR53) (Homo sapiens, UniProt P01903+P13762, G164S). The note with it: DRB4 *0101.
Another test has as its target HLA-DR DRB1*1101 (DR11) (Homo sapiens, UniProt P01903+P01911, A100R/A169T/A87E/I96F/K41T/L162R/M171V/P40S/Q125H/Q178H/Q39Y/Q99D/R42S/S66Y/T262R/V115G/W38E). To be noted: DRB1 *1101.
Another test has as its target HLA-DR DRB1*1302 (DR13) (Homo sapiens, UniProt P01903+P01911, A100E/A169T/K41T/L162R/M171V/P40S/Q125H/Q178H/Q39Y/Q99D/R42S/S66N/T262R/V115G/W38E/Y61H). The note with it: DRBI *1302.
A further test has as its target HLA-DR DRB5*0101 (DR51) (Homo sapiens, UniProt P01903+Q30154). The note with it: DRB5 *0101.
The target in a further test is HLA-DR DRB1*1501 (DR15) (Homo sapiens, UniProt P01903+P01911). The note with it: DRBI *1501.

Like-named read-outs stand apart in the source and are kept apart here. No end group written: not given here. Where only a bound is given, the exact number is not on record here.

HLA-DR DRB1*1101 (DR11), sequence (P01903 26-254 limits assumed, other chains not shown): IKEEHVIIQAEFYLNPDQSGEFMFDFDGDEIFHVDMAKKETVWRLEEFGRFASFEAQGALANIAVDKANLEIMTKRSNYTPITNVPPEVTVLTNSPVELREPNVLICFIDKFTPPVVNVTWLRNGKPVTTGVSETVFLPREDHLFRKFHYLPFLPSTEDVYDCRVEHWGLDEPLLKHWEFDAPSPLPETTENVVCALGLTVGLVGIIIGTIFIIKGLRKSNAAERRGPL
HLA-DR DRB1*0301 (DR3), sequence (P01903 26-254 limits assumed, other chains not shown): as above
HLA-DR DRB1*1302 (DR13), sequence (P01903 26-254 limits assumed, other chains not shown): as above

As to VYDFVFADLRIVYRD, the IC50 is 0.475 µM at HLA-DR DRB1*0401 (DR4) (read-out: DRB1 *0401); 0.0022 µM on HLA-DR DRB1*0301 (DR3); 0.198 µM at HLA-DR DRB1*0901 (DR9) (read-out: DRB1 *0901); 0.717 µM on HLA-DR DRB1*0405 (DR4) (read-out: DRB1 *0405); 0.098 µM on HLA-DR DRB1*0101 (DR1) (read-out: DRB1 *0101).
Turning to TIVYRDDTPHGVCTK, the IC50 was above 21.5 µM against HLA-DR DRB4*0101 (DR53); above 35.6 µM against HLA-DR DRB1*0701 (DR7) (DRB1 *0701); above 18 µM at HLA-DR DRB1*1101 (DR11); 6.28 µM against HLA-DR DRB1*1302 (DR13); above 39.1 µM against HLA-DR DRB1*0901 (DR9) (DRB1 *0901); above 62.3 µM on HLA-DR DRB5*0101 (DR51). In addition, the IC50 on HLA-DR DRB1*0405 (DR4) (DRB1 *0405) was above 9.75 µM; on HLA-DR DRB1*1501 (DR15), 5.45 µM; at HLA-DR DRB1*0101 (DR1) (DRB1 *0101) it was 3.8 µM.
On to REVYKFLFTDLRIVY, for which the IC50 worked out at 0.203 µM on HLA-DR DRB4*0101 (DR53); 0.054 µM at HLA-DR DRB1*0701 (DR7) (DRB1 *0701); 2.26 µM at HLA-DR DRB1*1101 (DR11); 0.08 µM against HLA-DR DRB1*1302 (DR13); 0.204 µM on HLA-DR DRB1*0901 (DR9) (DRB1 *0901); 0.155 µM at HLA-DR DRB5*0101 (DR51). In addition, the figures for the IC50 at HLA-DR DRB1*0405 (DR4) (DRB1 *0405), against HLA-DR DRB1*1501 (DR15) and against HLA-DR DRB1*0101 (DR1) (DRB1 *0101) were 0.052 µM, 0.258 µM and 0.0087 µM, respectively.
As for RTAMFQDPQERPRKL, the IC50 at HLA-DR DRB4*0101 (DR53) was 20.5 µM; on HLA-DR DRB1*0701 (DR7) (DRB1 *0701), 32.9 µM; at HLA-DR DRB1*0401 (DR4) (DRB1 *0401), 28.2 µM; against HLA-DR DRB1*1302 (DR13), 17.1 µM; on HLA-DR DRB1*0901 (DR9) (DRB1 *0901), above 25.3 µM; at HLA-DR DRB5*0101 (DR51), 7.47 µM. The IC50 at HLA-DR DRB1*0405 (DR4) (DRB1 *0405) worked out at 7.98 µM; against HLA-DR DRB1*1501 (DR15), 73.2 µM; on HLA-DR DRB1*0101 (DR1) (DRB1 *0101), 9.37 µM.
For the molecule KDYILDLQPETTDLH, the IC50 against HLA-DR DRB4*0101 (DR53) was 0.49 µM; at HLA-DR DRB1*0701 (DR7) (DRB1 *0701), above 72.3 µM; at HLA-DR DRB1*0401 (DR4) (DRB1 *0401), 1.02 µM; against HLA-DR DRB1*1101 (DR11), above 17.4 µM; against HLA-DR DRB1*1302 (DR13), 23.7 µM; against HLA-DR DRB1*0901 (DR9) (DRB1 *0901), above 49.9 µM. Also, the IC50 on HLA-DR DRB5*0101 (DR51) was above 55.1 µM; against HLA-DR DRB1*0405 (DR4) (DRB1 *0405), 2.77 µM; on HLA-DR DRB1*1501 (DR15), above 37.4 µM.
On to YYDYSVYGATLESIT, for which the IC50 at HLA-DR DRB4*0101 (DR53) is 32.4 µM; against HLA-DR DRB1*1101 (DR11), 9.12 µM; against HLA-DR DRB1*0901 (DR9) (DRB1 *0901) it was 1.4 µM; at HLA-DR DRB5*0101 (DR51) it was above 51 µM; on HLA-DR DRB1*0405 (DR4) (DRB1 *0405), 0.23 µM; on HLA-DR DRB1*1501 (DR15) it was 1.11 µM. For the same molecule, at HLA-DR DRB1*0101 (DR1) (DRB1 *0101), the IC50 was 1.01 µM.
Consider `CSCC[C@H](NC(=O)[C@H](Cc1ccc(O)cc1)NC(=O)[C@H](CCC(=O)O)NC(=O)[C@@H](N)Cc1c[nH]cn1)C(=O)N[C@@H](CC(C)C)C(=O)N[C@@H](CC(=O)O)C(=O)N[C@@H](CC(C)C)C(=O)N[C@@H](CCC(N)=O)C(=O)N1CCC[C@H]1C(=O)N[C@@H](CCC(=O)O)C(=O)N[C@H](C(=O)N[C@H](C(=O)N[C@@H](CC(=O)O)C(=O)N[C@@H](CC(C)C)C(=O)N[C@@H](Cc1ccc(O)cc1)C(=O)O)[C@@H](C)O)[C@@H](C)O`, for which the IC50 is 2.1 µM on HLA-DR DRB4*0101 (DR53); above 18.6 µM against HLA-DR DRB1*0701 (DR7) (DRB1 *0701); above 56.2 µM on HLA-DR DRB1*1101 (DR11); 13 µM on HLA-DR DRB1*1302 (DR13); 21.3 µM on HLA-DR DRB1*0901 (DR9) (DRB1 *0901); above 22.9 µM against HLA-DR DRB5*0101 (DR51). For the same molecule, the IC50 on HLA-DR DRB1*0405 (DR4) (DRB1 *0405) is 2.29 µM; at HLA-DR DRB1*1501 (DR15), 30.9 µM.
On to IDGVNHQHLPARRAE, for which the IC50 on HLA-DR DRB1*0701 (DR7) (DRB1 *0701) was above 18.6 µM; against HLA-DR DRB1*0401 (DR4) (DRB1 *0401), 34.3 µM; against HLA-DR DRB1*1101 (DR11) it was above 56.2 µM; at HLA-DR DRB1*1302 (DR13), above 11.5 µM; on HLA-DR DRB1*0901 (DR9) (DRB1 *0901), above 39.9 µM; against HLA-DR DRB5*0101 (DR51), 12.6 µM. Moreover, the IC50 was above 17 µM against HLA-DR DRB1*0405 (DR4) (DRB1 *0405) and above 36.8 µM on HLA-DR DRB1*1501 (DR15).
Regarding MLDLQPETTDLYCYE, the IC50 at HLA-DR DRB1*0701 (DR7) (read-out: DRB1 *0701) was above 72.3 µM; on HLA-DR DRB1*0401 (DR4) (read-out: DRB1 *0401), 1.91 µM; on HLA-DR DRB1*0301 (DR3), 0.72 µM; on HLA-DR DRB1*0901 (DR9) (read-out: DRB1 *0901) it was above 32.2 µM; on HLA-DR DRB1*0405 (DR4) (read-out: DRB1 *0405), 4.25 µM.
For the molecule CSNLSTCVLQKLSQE, the IC50 is 31.8 µM at HLA-DR DRB1*0701 (DR7) (read-out: DRB1 *0701), above 205 µM at HLA-DR DRB1*0301 (DR3), 7.23 µM on HLA-DR DRB1*0901 (DR9) (read-out: DRB1 *0901) and 5.34 µM at HLA-DR DRB1*0405 (DR4) (read-out: DRB1 *0405).
As to QDYVLDLQPEATDLH, the IC50 is 1.85 µM at HLA-DR DRB4*0101 (DR53); above 18.6 µM against HLA-DR DRB1*0701 (DR7) (DRB1 *0701); 0.253 µM against HLA-DR DRB1*0401 (DR4) (DRB1 *0401); above 11.9 µM against HLA-DR DRB1*1101 (DR11); above 11.5 µM at HLA-DR DRB1*1302 (DR13); above 39.9 µM against HLA-DR DRB1*0901 (DR9) (DRB1 *0901). Also, the IC50 is above 22.9 µM against HLA-DR DRB5*0101 (DR51), 5.59 µM at HLA-DR DRB1*0405 (DR4) (DRB1 *0405), above 62.8 µM against HLA-DR DRB1*1501 (DR15) and 13.4 µM against HLA-DR DRB1*0101 (DR1) (DRB1 *0101).
